Where two headings read alike, the source gives them in different places.
Columns and labels:
[1] = test system: SARS-CoV-2 "NRC-03-nhCoV" virus; assay: Inhibitory concentration 50 (IC50) determination, virus-induced cytopathic effect in Vero-E6 cells, crystal violet; assay type: cell-based; details: for Selectivity Index (CC50/IC50): CC50 Vero E6 / IC50 NRC-03-nhCoV
[2] = test system: MERS-CoV virus "NRCE-HKU270"; assay type: cell-based; details: Vero E6 cells
NRC-03-nhCoV = assay: Mode of antiviral action, plaque infectivity reduction assay in Vero-E6 cells; assay type: cell-based, SARS-CoV-2
Description: To investigate whether the tested compound with high selectivity index and antiviral activity against NRC-03-nhCoV affect (a) viral adsorption, (b) viral replication or (c) viricidal effect, a plaque infectivity reduction assay was performed according to the following protocols:
The viral adsorption mechanism was assayed according to a protocol by Zhang et al. with modifications. Vero-E6 cells were cultivated in a 6-well plate (10^5 cells/mL) for 24 h at 37° C. Each tested drug was applied in 500 μL of medium without supplements and co-incubated with the cells for 2 h at 4° C. The non-absorbed drug in the applied inocula was removed by washing cells three times with 1×PBS. The NRC-03-nhCoV was diluted to a countable range “10-4” and co-incubated with the pretreated cells. About 1 h post-incubation, the inocula were removed and 3 mL of agarose overlay (1:1 mixture of warmed 2× plaque media and a stock solution of heated 2% agarose) were added. The plates were kept at room temperature to solidify and then incubated at 37° C. to allow the formation of viral plaques. […]
The impact of the tested drug on viral replication was determined as previously described. […] The analyzed compound was then applied in varying concentrations to infected cells for another 1 h contact time at 37° C. […]
The virucidal mechanism was analyzed. […]

[3] = Severe acute respiratory syndrome coronavirus 2, Vero C1008, 72 h
[4] = Severe acute respiratory syndrome coronavirus 2, Vero C1008, 72 h, NRC-03-nhCoV in Vero E6, 72 h, reduction of CPE by 50%, read-out: IC50

SMILES	Selectivity Index (CC50/IC50) [1]	IC50 [1, 4]	also measured
CC1(C)CC[C@]2(C(=O)O)CC[C@]3(C)C(=CC[C@@H]4[C@@]5(C)CC[C@H](O)C(C)(C)[C@@H]5CC[C@]43C)[C@@H]2C1 [Compound 1, Oleanic acid]	0.39	–	IC50 [1, 3]: 476 µM
CC1(C)CC[C@]2(C(=O)O)CC[C@]3(C)C(=CC[C@@H]4[C@@]5(C)C[C@@H](O)[C@H](O)C(C)(C)[C@@H]5CC[C@]43C)[C@@H]2C1 [Compound 2, Maslinic acid]	0.97	–	IC50 [1, 3]: 99.9 µM
C#CCOC(=O)[C@]12CCC(C)(C)CC1C1=CCC3[C@@]4(C)CC[C@H](O)C(C)(C)C4CC[C@@]3(C)[C@]1(C)CC2 (stereo partly drawn) [Compound 3, Propargyl-(3β)-3-hydroxyolean-12-en-28-oate]	2.32	–	–
C#CCOC(=O)[C@]12CCC(C)(C)CC1C1=CCC3[C@@]4(C)C[C@@H](O)[C@H](O)C(C)(C)C4CC[C@@]3(C)[C@]1(C)CC2 (stereo partly drawn) [Compound 4, Propargyl-(2α,3β)-2,3-dihydroxyolean-12-en-28-oate]	0.67	–	IC50 [1, 3]: 236 µM
C#CCOC(=O)[C@]12CCC(C)(C)CC1C1=CCC3[C@@]4(C)C[C@@H](OCC#C)[C@H](O)C(C)(C)C4CC[C@@]3(C)[C@]1(C)CC2 (stereo partly drawn) [Compound 5, Propargyl-(2α)-2-(propargyloxy)-(3β)-3-hydroxy-olean-12-en-28-oate]	1.06	85.2 µM	–
C#CCOC(=O)[C@]12CCC(C)(C)CC1C1=CCC3[C@@]4(C)C[C@@H](O)[C@H](OCC#C)C(C)(C)C4CC[C@@]3(C)[C@]1(C)CC2 (stereo partly drawn) [Compound 6, Propargyl-(3α)-3-(propargyloxy)-(2β)-2-hydroxy-olean-12-en-28-oate]	1.55	135 µM	–
C#CCOC(=O)[C@]12CCC(C)(C)CC1C1=CCC3[C@@]4(C)C[C@@H](OCC#C)[C@H](OCC#C)C(C)(C)C4CC[C@@]3(C)[C@]1(C)CC2 (stereo partly drawn) [Compound 7, Propargyl-(2α,3β)-2,3-bis(propargyloxy)-olean-12-en-28-oate]	0.9	108 µM	–
Cc1cccc(-n2nncc2COC(=O)[C@]23CCC(C)(C)CC2C2=CCC4[C@@]5(C)CC[C@H](O)C(C)(C)C5CC[C@@]4(C)[C@]2(C)CC3)c1 (stereo partly drawn) [Compound 8, (1-(3-mcthylphenyl)-1H-1,2,3-triazol-5-yl)methyl-(3β)-3-hydroxyolean-12-en-28-oate]	0.98	174 µM	–
Cc1cccc(-n2cc(COC(=O)[C@]34CCC(C)(C)CC3C3=CCC5[C@@]6(C)CC[C@H](O)C(C)(C)C6CC[C@@]5(C)[C@]3(C)CC4)nn2)c1 (stereo partly drawn) [Compound 10, (1-(3-methylphenyl)-1H-1,2,3-triazol-4-yl)methyl-(3β)-3-hydroxyolean-12-en-28-oate]	3.68	–	–
CC1(C)CC[C@]2(C(=O)OCc3cn(-c4ccccc4)nn3)CC[C@]3(C)C(=CCC4[C@@]5(C)C[C@@H](O)[C@H](O)C(C)(C)C5CC[C@]43C)C2C1 (stereo partly drawn) [Compound 11, (1-Phenyl-1H-1,2,3-triazol-4-yl)methyl-(2α,3β)-2,3-dihydroxyolean-12-en-28-oate]	1.62	135 µM	–
CC1(C)CC[C@]2(C(=O)OCc3cn(-c4ccc(Cl)cc4)nn3)CC[C@]3(C)C(=CCC4[C@@]5(C)C[C@@H](OCc6cn(-c7ccc(Cl)cc7)nn6)[C@H](O)C(C)(C)C5CC[C@]43C)C2C1 (stereo partly drawn) [Compound 12, (1-(4-Chlorophenyl)-1H-1,2,3-triazol-4-yl)methyl-(2α,3β)-2-((1-(4-chlorophenyl)-1H-1,2,3-triazol-4-yl)methoxy)-3-hydroxyolean-12-en-28-oate]	4.42	116 µM	–
COc1ccc(-n2cc(COC(=O)[C@]34CCC(C)(C)CC3C3=CCC5[C@@]6(C)C[C@@H](O)[C@H](OCc7cn(-c8ccc(OC)cc8)nn7)C(C)(C)C6CC[C@@]5(C)[C@]3(C)CC4)nn2)cc1 (stereo partly drawn) [Compound 13, (1-(4-Methoxyphenyl)-1H-1,2,3-triazol-4-yl)methyl-(2α,3β)-2-hydroxy-3-((1-(4-methoxyphenyl)-1H-1,2,3-triazol-4-yl)methoxy)-olean-12-en-28-oate]	2.24	159 µM	–
COc1ccc(-n2cc(COC(=O)[C@]34CCC(C)(C)CC3C3=CCC5[C@@]6(C)C[C@@H](OCc7cn(-c8ccc(OC)cc8)nn7)[C@H](OCc7cn(-c8ccc(OC)cc8)nn7)C(C)(C)C6CC[C@@]5(C)[C@]3(C)CC4)nn2)cc1 (stereo partly drawn) [Compound 14, (1-(4-Methoxyphenyl)-1H-1,2,3-triazol-4-yl)methyl-(2α,3β)-2,3-bis((1-(4-methoxyphenyl)-1H-l,2,3-triazol-4-yl)methoxy)-olean-12-en-28-oate]	2.96	137 µM	–
COc1ccc(-c2cc(COC(=O)[C@]34CCC(C)(C)CC3C3=CCC5[C@@]6(C)CC[C@H](O)C(C)(C)C6CC[C@@]5(C)[C@]3(C)CC4)on2)cc1 (stereo partly drawn) [Compound 15, (3-(4-methoxyphenyl)isoxazol-5-yl) methyl-(3β)-3-hydroxyolean-12-en-28-oate]	0.79	–	–
COc1ccc(-c2cc(COC(=O)[C@]34CCC(C)(C)CC3C3=CCC5[C@@]6(C)C[C@@H](O)[C@H](O)C(C)(C)C6CC[C@@]5(C)[C@]3(C)CC4)on2)cc1 (stereo partly drawn) [Compound 16, (3-(4-methoxyphenyl)isoxazol-5-yl) methyl-(2α,3β)-2,3-dihydroxyolean-12-en-28-oate]	1.48	–	–
CC1(C)CC[C@]2(C(=O)OCc3cc(-c4ccc(Cl)cc4)no3)CC[C@]3(C)C(=CCC4[C@@]5(C)C[C@@H](O)[C@H](O)C(C)(C)C5CC[C@]43C)C2C1 (stereo partly drawn) [Compound 17, (3-(4-chlorophenyl)isoxazol-5-yl) methyl-(2α,3β)-2,3-dihydroxyolean-12-en-28-oate]	–	4.12 µM	IC50 ([1]; NRC-03-nhCoV in Vero E6, 72 h, reduction of CPE by 50%, read-out: IC50): 4.12 to 99.9 µM; antiviral activity against NRCE-HKU270 [2]: promising antiviral activity against NRCE-HKU270 at micromolar concentrations; interference with viral adsorption and replication (NRC-03-nhCoV): efficiently impair viral replication and adsorption; virucidal effect (NRC-03-nhCoV): virucidal effect

Source: patent publication US11266632B1, “Maslinic and oleanolic acids derivatives for treating SARS-CoV-2 infection” (priority 2021, dated 2022)
